Data as given in patent US9808470B2, “Estrogenic components for use in the treatment of neurological disorders” (UNIVERSITE DE LIEGE, priority 2012, dated 2017).

Experiments:
O4-positive cells = assay: Ex.6 IL-1β induced diffuse white matter injury mouse model: pre-oligodendrocyte maturation gene expression (qRT-PCR); type: in vivo; conditions: P5
Description: Experimental protocols were approved by the institutional guidelines of the Institut National de la Santé et de la Recherche Scientifique (Inserm, France), and met the guidelines for the United States Public Health Service's Policy on Humane Care and Use of Laboratory Animals (NIH, Bethesda, Md., USA). Experiments were performed using OF1 strain mice purchased from Charles River (L'Arbresle, France) and born in our animal facility. Animals were housed under a 12 h light-dark cycle, had access to food and water ad libitum. Sex was determined at birth and confirmed at sacrifice. To avoid any potential variability linked to sex to differences. only male pups were used. […]
Preparation of samples for quantitative reverse-transcriptase polymerase-chain reaction (qRT-PCR), primer design, and PCR protocol, were similar to that previously described (Favrais et al., 2011; Chhor et al., 2013). […] RNA quality and concentration were assessed by spectrophotometry with the Nanodrop™ apparatus (Thermoscientific, Wilmington, Del., USA). […] The relative quantities are expressed as the specific ratio between the gene of interest and Rpl13 or GAPDH. The data are presented as relative mRNA units with respect to control values (expressed as a fold-difference with respect to the mean of sham values).

[1] = system: Microtubule-associated protein 2 (MAP2); assay: Ex.4 therapeutic HIE rat model: MAP2 staining; type: in vivo; conditions: PND14
Description: The brain sections were processed for immunohistochemical detection of neuronal cytoskeletal disruption. For antigen retrieval, the sections were heated in 10 mmol/L citrate buffer (pH 6.0) at 100° C. for 10 minutes. Endogenous peroxidase activity was blocked with 3% hydrogen peroxide for 10 minutes and after a second blocking with 5% normal goat serum, the sections were incubated with anti-microtubule-associated protein 2 (MAP2) antibody, diluted 1:1000 (mouse monoclonal antibody; Sigma, St. Louis, Mo., US) 1 h at room temperature. After rinsing, biotinylated goat anti-mouse immunoglobulin G (Vector Laboratories, Burlingame, Calif.) was added, and antibody detection was performed with the avidin-biotin complex method (Vector Laboratories), with 3,3′-diaminobenzidine (DAB) as the chromogen. Following the reaction with DAB, the slides were washed, dehydrated, and coverslipped.
Samples were analyzed with the aid of an image scanner (Nanozoomer Virtual Microscopy, Hamamatsu, Tokyo, Japan) and the ImageJ software (NIH, US). The MAP2 positive areas in the ipsilateral and contralateral hemispheres were measured. The ratio of the MAP2 positive areas was calculated as the MAP2 positive area of the ipsilateral hemisphere divided by the MAP2 positive area of the contralateral hemisphere. The ratio of the MAP2 positive area in the Sham group was considered by default as 1.0.
To study the therapeutic effect of estetrol, newborn rat pups were assigned to one of the following 6 groups at postnatal day 7: sham group (n=29), vehicle group (n=20), 1 mg/kg E4 group (n=16), 5 mg/kg E4 group (n=19), 10 mg/kg day E4 (n=17) and 50 mg/kg day E4 group (n=15). At postnatal day 7 animals were anesthetized with isoflurane (induction, 3.0%; maintenance, 1.5%), and the rat pups from vehicle and E4 groups passed through surgery encompassing left common carotid artery double ligation and cut. After surgery, the pups were returned to their dams and allowed to recover for 1 hour. The pups were then placed in a humidified hypoxic in vivo cabinet (CoyLab). Hypoxia was produced by the inhalation of 11%-8% of oxygen balanced by nitrogen at decreased concentration of oxygen for 20 minutes, followed by inhalation of 8% oxygen and 92% nitrogen at constant concentration for 35 minutes. All the manipulations were performed at 37° C.
Upon retrieval from the hypoxia chamber the rat pups were injected intraperitoneally either by vehicle (vehicle group) or by E4 (1 mg/kg, 5 mg/kg, 10 mg/kg or 50 mg/kg) in accordance to the group assignment. The animals from the sham group went through similar procedures but proceeded neither left common carotid artery ligation and cut followed by hypoxia nor vehicle or estetrol administration. Rat pups recovered with their dams until being sacrificed at postnatal day 14.

SMILES: C[C@]12CC[C@@H]3c4ccc(O)cc4CC[C@H]3[C@@H]1[C@@H](O)[C@@H](O)[C@@H]2O [E4, 1,3,5(10)-estratrien-3,15α,16α,17β-tetrol]
- IL-1β-induced up-regulation in ID2 expression (O4-positive cells; 5 mg/kg and 10 mg/kg E4 co-treatment): prevented
- expression of Hey2 (O4-positive cells; IL-1β+E4 5 mg/kg, vs IL-1β alone): trend to up-regulation
- ratio of MAP2-positive area (ipsilateral/contralateral) ([1]; 1 mg/kg E4 single ip dose after HI): 0.943±0.028
- ratio of MAP2-positive area (ipsilateral/contralateral) ([1]; 5 mg/kg E4 single ip dose after HI): 0.89±0.037
- ratio of MAP2-positive area (ipsilateral/contralateral) ([1]; 10 mg/kg E4 single ip dose after HI): 0.938±0.044
- ratio of MAP2-positive area (ipsilateral/contralateral) ([1]; 50 mg/kg E4 single ip dose after HI): 0.966±0.036
